Experimental data: patent US11020405B2, “Method for prevention or treatment of diabetic complications” (KANGWON NATIONAL UNIVERSITY UNIVERSITY-INDUSTRY COOPERATION …, priority 2017, dated 2021)

Assays:
lungs of diabetic mice = assay: Hyperglycemia-induced pulmonary vascular leakage in diabetic mice (FITC-dextran); format: in vivo, C57BL/6 mice; conditions: 10 mg/kg midazolam intraperitoneal daily for 2 days (FIG. 21)
Protocol: FIGS. 21A and 21B show the preventive effects of midazolam against hyperglycemia-induced pulmonary vascular leakage in diabetic mice. Six-week-old male C57BL/6 mice were administered with streptozotocin (150 mg/kg body weight) to give diabetic mouse models. Two weeks after streptozotocin injection, diabetic mice were administered 10 mg/kg midazolam by intraperitoneal injection daily for 2 days, and vascular leakage was investigated. The body weight of mice were measure in normal (19.9±0.3 g), diabetic (17.7±0.3 g), and midazolam supplemented diabetic mice (17.6±0.3 g). Blood glucose levels were also monitored in normal (123.5±6.5 mg/dL), diabetic (505.0±89.0 mg/dL), and midazolam supplemented diabetic mice (500.3±63.3 mg/dL). The mice were anesthetized with 3% isoflurane, and 1.25 mg of FITC-dextran was injected into the right ventricle of each mouse and allowed to circulate for 5 min. The lungs were dissected, fixed, and embedded in OCT compound. Cryosections of lungs were stained with isolectin B4 and DAPI. Representative images of vascular leakage in lungs are shown in additional FIG. 21A. Scale bars, 100 μm. The results of vascular leakage quantitatively analyzed by measuring the fluorescence intensity of FITC-dextran in the lungs are shown in additional FIG. 21B (n=4 for normal and diabetic, n=6 for diabetic+Midazolam).

TGase [1] = assay: Analysis of TGase activity of cells (5-(biotinamido)pentylamine incorporation); format: cell-based, human; conditions: HRECs
Protocol: Purchased from Applied Cell Biology Research Institute (Cell Systems, Kirkland, Wash.), human retinal endothelial cells (HRECs) were cultured in an M19 medium, containing 20% FBS, 3 ng/mL bFGF, 5 U/mL heparin, 100 U/mL penicillin and […], in a 2% gelatin-coated plate.
Before the following Test Examples 2 to 7, the HRECs were cultured for 6 hr in a medium containing 1% FBS and an antibiotic agent, thus preparing HRECs of Test Example 1.
With reference to FIG. 4A, the HRECs of Test Example 1 were treated with 0 to 20 μM midazolam, cultured for 2 hr, treated with 10 ng/mL VEGF, incubated for 2 hr, treated with 1 mM 5-(biotinamido)pentylamine, incubated for 1 hr, fixed with 3.7% formaldehyde, treated with 0.2% triton X-100, treated with a blocking solution containing 138 mM NaCl, 0.1% Tween 20 and 2% BSA dissolved in a 20 mM Tris (pH 7.6) buffer, incubated for 30 min, incubated for 1 hr with FITC-conjugated streptavidin (1:200, v/v), and then measured using confocal microscopy to thus determine the fluorescence intensity of single cells.
With reference to FIG. 4B, the HRECs of Test Example 1 were subjected to the respective treatments below and cultured for 30 min. Here, treatment with 10 ng/mL VEGF was performed for 2 hr. […]

TGase [2] = assay: Identification of receptor of midazolam through TGase activity analysis; format: cell-based, human; conditions: HRECs
Protocol: With reference to FIG. 11A, the HRECs of Test Example 1 were subjected to the respective treatments below, cultured for 2 hr, treated with 1 mM 5-(biotinamido)pentylamine, incubated for 1 hr, fixed with 3.7% formaldehyde, treated with 0.2% triton X-100, treated with a blocking solution containing 138 mM NaCl, 0.1% Tween 20 and 2% BSA dissolved in a 20 mM Tris (pH 7.6) buffer, incubated for 30 min, incubated with FITC-conjugated streptavidin (1:200, v/v) for 1 hr, and then measured using confocal microscopy to thus determine the fluorescence intensity of single cells.
As will be described below, flumazenil was used as a GABAA receptor antagonist and PK11195 was used as a TSOP receptor antagonist.
With reference to FIG. 11B, the HRECs of Test Example 1 were treated with 0 μM, 0.01 μM, 0.1 μM, 1 μM, 10 μM, 20 μM, and 50 μM flumazenil and 0 μM, 0.01 μM, 0.1 μM, 1 μM, 3 μM, 10 μM, and 30 μM PK11195, cultured for 1 hr, treated with 20 μM midazolam, cultured for 30 min, treated with 10 ng/ml VEGF, incubated for 10 min, treated with 1 mM 5-(biotinamido)pentylamine, incubated for 1 hr, fixed with 3.7% formaldehyde, treated with 0.2% triton X-100, treated with a blocking solution containing 138 mM NaCl, 0.1% Tween 20 and 2% BSA dissolved in a 20 mM Tris (pH 7.6) buffer, incubated for 30 min, incubated with FITC-conjugated streptavidin (1:200, v/v) for 1 hr, and then measured using confocal microscopy to thus determine the fluorescence intensity of single cells.

[3] = test system: aortic endothelium of diabetic mice; assay: Hyperglycemia-induced endothelial apoptosis in aortic endothelium of diabetic mice (TUNEL); format: in vivo, C57BL/6 mice; conditions: midazolam 10 mg/kg intraperitoneal daily for 14 days (FIG. 19)
Protocol: FIGS. 19A and 19B show the preventive effects of midazolam against hyperglycemia-induced endothelial apoptosis in the aortic endothelium of diabetic mice. Six-week-old male C57BL/6 mice were administered with streptozotocin (150 mg/kg body weight) to give diabetic mouse models. One week after streptozotocin injection, diabetic mice were administered midazolam (10 mg/kg) by intraperitoneal injection daily for 14 days. The body weight of mice were measure in normal (20.7±0.1 g), diabetic (17.1±0.1 g), and midazolam supplemented diabetic mice (17.0±0.3 g). Blood glucose levels were also monitored in normal (124.0±12.0 mg/dL), diabetic (509.0±1.0 mg/dL), and midazolam supplemented diabetic mice (515.7±3.4 mg/dL). Aorta of mice were dissected and cut longitudinally to expose the endothelium. And then aortic segments were fixed for 15 min with 1% (w/v) paraformaldehyde in PBS, followed by treatment for 30 min with 70% (v/v) ethanol on ice. Apoptotic cells were stained by terminal deoxynucleotidyl transferase dUTP nick end labeling (TUNEL) with nuclear counterstaining with DAPI and visualized by confocal microscopy in the aortic endothelium. […] The results of endothelial apoptosis quantitatively analyzed by measurement of TUNEL staining in the aorta are shown in additional FIG. 19B (n=4 for normal and diabetic, n=6 for diabetic+Midazolam).

With Cc1ncc2n1-c1ccc(Cl)cc1C(c1ccccc1F)=NC2 [midazolam] the “pulmonary vascular leakage (FITC-dextran extravasation)” value (lungs of diabetic mice) was “blocked by midazolam administration”, the “TGase activity, concentration dependence” value (TGase [1]; 0 to 20 μM midazolam 2 hr, then 10 ng/mL VEGF 2 hr (FIG. 4A)) was “TGase activity was decreased with an increase in the concentration of midazolam” and the “TGase activity (VEGF-induced) compared to control” value (TGase [1]; 10 ng/mL VEGF 2 hr with 20 μM midazolam, 5 μM BAPTA-AM, 1 mM NAC, 0.5 μM Trolox, 50 μM cystamine or 20 μM MDC (FIG. 4B)) was “substantially the same effect of inhibiting TGase activity as the TGase inhibitors cystamine and MDC”. For the same molecule, the “TGase activity (VEGF-induced) compared to control” value (TGase [2]; 20 μM midazolam 10 min then 10 ng/ml VEGF, no washing (FIG. 11A)) was “no significant TGase activity increase was observed”, the “TGase activity (VEGF-induced, after washing)” value (TGase [2]; 20 μM midazolam 30 min, washing with serum-free medium, then 10 ng/ml VEGF (FIG. 11A)) was “TGase activity was increased” and the “hyperglycemia-induced endothelial apoptosis in aorta (TUNEL staining)” value [3] was “inhibited the hyperglycemia-induced apoptosis of diabetic aortas”.
